How the values were obtained:
crabgrass, large [1] = test: Test A preemergence; assay type: in vivo, Digitaria sanguinalis; conditions: preemergence; for Crabgrass, Large plant response rating (0 to 100 scale): 125 g ai/ha, visual injury approx. 10 days after treatment; for Crabgrass, Large plant response rating: 500 g ai/ha, visual injury after approx. 10 days, 0 to 100 scale (0 no effect, 100 complete control)
Outline: (§1)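 Ratings express plant response from 0 (no effect) to 100 (complete control), judged visually against untreated controls after approximately 10 days in the greenhouse. Preemergence applications were made as directed soil sprays onto seeded loam–sand mix, and postemergence applications onto 2–10 cm plants at one- to two-leaf stage.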

morningglory = test: Test A preemergence; assay type: in vivo, Ipomoea spp.; conditions: preemergence; for Morningglory plant response rating (0 to 100 scale): 125 g ai/ha, visual injury approx. 10 days after treatment
Outline: as §1

barnyardgrass [2] = test: Test A postemergence; assay type: in vivo, Echinochloa crus-galli
Outline: as §1

pigweed = test: Test A postemergence; assay type: in vivo, Amaranthus retroflexus
Outline: as §1

ryegrass, Italian = test: Test C preemergence; assay type: in vivo, Lolium multiflorum
Outline: (§2)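 Herbicidal effect is expressed as percent visual control (0–100) judged against untreated plants 13 to 15 days after treatment in the greenhouse. Preemergence pots contained seeds in a soil–sand blend; postemergence plants, 2–18 cm tall, grew in peat-based planting medium.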

crabgrass, large [3] = test: Test C preemergence; assay type: in vivo, Digitaria sanguinalis
Outline: as §2

foxtail, giant = test: Test C preemergence; assay type: in vivo, Setaria faberii
Outline: as §2

johnsongrass = test: Test C preemergence; assay type: in vivo, Sorghum halepense
Outline: as §2

waterhemp = test: Test C preemergence; assay type: in vivo, Amaranthus rudis
Outline: as §2

velvetleaf = test: Test C preemergence; assay type: in vivo, Abutilon theophrasti
Outline: as §2

crabgrass, large [4] = test: Test C postemergence; assay type: in vivo, Digitaria sanguinalis; conditions: for Plant response rating (scale of 0 to 100 where 0 is no effect and 100 is complete control), Crabgrass, Large: Postemergence, 31 g ai/ha, visually evaluated after 13 to 15 days; for Crabgrass, Large plant response rating / Plant response rating, Crabgrass, Large: postemergence; for Crabgrass, Large plant response rating: 62 g ai/ha, scale 0 to 100
Outline: as §2

barnyardgrass [5] = test: Test C postemergence; assay type: in vivo, Echinochloa crus-galli; conditions: for Plant response rating (scale of 0 to 100 where 0 is no effect and 100 is complete control), Barnyardgrass: Postemergence, 31 g ai/ha, visually evaluated after 13 to 15 days; for Barnyardgrass plant response rating / Plant response rating, Barnyardgrass: postemergence; for Barnyardgrass plant response rating: 62 g ai/ha, scale 0 to 100
Outline: as §2

kochia = test: Test C postemergence; assay type: in vivo, Kochia scoparia; conditions: for Plant response rating (scale of 0 to 100 where 0 is no effect and 100 is complete control), Kochia: Postemergence, 31 g ai/ha, visually evaluated after 13 to 15 days; for Kochia plant response rating / Plant response rating, Kochia: postemergence; for Kochia plant response rating: 62 g ai/ha, scale 0 to 100
Outline: as §2

chickweed = test: Test C postemergence; assay type: in vivo, Stellaria media; conditions: for Plant response rating (scale of 0 to 100 where 0 is no effect and 100 is complete control), Chickweed: Postemergence, 31 g ai/ha, visually evaluated after 13 to 15 days; for Chickweed plant response rating / Plant response rating, Chickweed: postemergence; for Chickweed plant response rating: 62 g ai/ha, scale 0 to 100
Outline: as §2

[6] = Postemergence, 125 g ai/ha, 0 to 100 scale, 0 no effect, 100 complete control
[7] = Postemergence, 500 g ai/ha, 0 to 100 scale (0 no effect, 100 complete control)
[8] = Preemergence, rate head not shown (block before 16 g ai/ha), scale 0 to 100
[9] = preemergence, 62 g ai/ha, scale 0 to 100 (0 no effect, 100 complete control), 13 to 15 days
[10] = preemergence, 125 g ai/ha, 13 to 15 days, scale 0 to 100, 0 = no effect, 100 = complete control
[11] = preemergence, 250 g ai/ha, scale 0 to 100, 0 is no effect, 100 is complete control
[12] = 250 g ai/ha, scale 0 to 100 (0 no effect, 100 complete control)
[13] = 125 g ai/ha, scale 0 to 100, 0 no effect, 100 complete control
[14] = postemergence, 125 g ai/ha, about 10 days, visual rating on 0 to 100 scale (0 no effect, 100 complete control)
[15] = preemergence, 31 g ai/ha, visual rating, scale 0 to 100 (0 no effect, 100 complete control), 13 to 15 days

CCc1cc(C(=O)NC2CC2)nn1Cc1ccnc(Br)c1 [Compound 220]
Crabgrass, Large plant response rating (0 to 100 scale) (crabgrass, large [1]): 100
Crabgrass, Large plant response rating (crabgrass, large [1]): 100
Morningglory plant response rating (0 to 100 scale) (morningglory): 20
Barnyardgrass plant response rating (barnyardgrass [2]; [6]): 80
Barnyardgrass plant response rating (barnyardgrass [2]; [7]): 100
Pigweed plant response rating (pigweed; [6]): 90
Pigweed plant response rating (pigweed; [7]): 100
Plant response rating, Ryegrass, Italian (ryegrass, Italian; [8]): 0
Ryegrass, Italian plant response rating (ryegrass, Italian; [9]): 0
Plant response rating, Ryegrass, Italian (ryegrass, Italian; [10]): 5
Ryegrass, Italian plant response rating (ryegrass, Italian; [11]): 5
Plant response rating, Crabgrass, Large (crabgrass, large [3]; [8]): 95
Crabgrass, Large plant response rating (crabgrass, large [3]; [9]): 100
Plant response rating, Crabgrass, Large (crabgrass, large [3]; [10]): 100
Crabgrass, Large plant response rating (crabgrass, large [3]; [11]): 100
Plant response rating, Foxtail, Giant (foxtail, giant; [8]): 10
Foxtail, Giant plant response rating (foxtail, giant; [9]): 75
Plant response rating, Foxtail, Giant (foxtail, giant; [10]): 100
Foxtail, Giant plant response rating (foxtail, giant; [11]): 100
Plant response rating, Johnsongrass (johnsongrass; [8]): 10
Johnsongrass plant response rating (johnsongrass; [9]): 5
Plant response rating, Johnsongrass (johnsongrass; [10]): 5
Johnsongrass plant response rating (johnsongrass; [11]): 80
Plant response rating, Waterhemp (waterhemp; [8]): 75
Waterhemp plant response rating (waterhemp; [9]): 95
Plant response rating, Waterhemp (waterhemp; [10]): 100
Waterhemp plant response rating (waterhemp; [11]): 100
Plant response rating, Velvetleaf (velvetleaf; [8]): 5
Velvetleaf plant response rating (velvetleaf; [9]): 20
Plant response rating, Velvetleaf (velvetleaf; [10]): 75
Velvetleaf plant response rating (velvetleaf; [11]): 100
Plant response rating (scale of 0 to 100 where 0 is no effect and 100 is complete control), Crabgrass, Large (crabgrass, large [4]): 5
Crabgrass, Large plant response rating (crabgrass, large [4]): 5
Plant response rating, Crabgrass, Large (crabgrass, large [4]; [12]): 10
Plant response rating, Crabgrass, Large (crabgrass, large [4]; [13]): 5
Plant response rating (scale of 0 to 100 where 0 is no effect and 100 is complete control), Barnyardgrass (barnyardgrass [5]): 0
Barnyardgrass plant response rating (barnyardgrass [5]): 0
Plant response rating, Barnyardgrass (barnyardgrass [5]; [12]): 15
Plant response rating, Barnyardgrass (barnyardgrass [5]; [13]): 10
Plant response rating (scale of 0 to 100 where 0 is no effect and 100 is complete control), Kochia (kochia): 80
Kochia plant response rating (kochia): 85
Plant response rating, Kochia (kochia; [12]): 90
Plant response rating, Kochia (kochia; [13]): 90
Plant response rating (scale of 0 to 100 where 0 is no effect and 100 is complete control), Chickweed (chickweed): 50
Chickweed plant response rating (chickweed): 55
Plant response rating, Chickweed (chickweed; [12]): 80
Plant response rating, Chickweed (chickweed; [13]): 60

CCCNC(=O)c1cc(CCF)n(Cc2ccnc(C(F)(F)F)c2)n1 [Compound 177]
Crabgrass, Large plant response rating (0 to 100 scale) (crabgrass, large [1]): 100
Crabgrass, Large plant response rating (crabgrass, large [1]): 100
Morningglory plant response rating (0 to 100 scale) (morningglory): 100
Morningglory plant response rating (morningglory; 500 g ai/ha, visual injury after approx. 10 days, 0 to 100 scale (0 no effect, 100 complete control)): 100
Barnyardgrass plant response rating (barnyardgrass [2]; [7]): 100
Barnyardgrass plant response rating (barnyardgrass [2]; [14]): 100
Pigweed plant response rating (pigweed; [7]): 100
Pigweed plant response rating (pigweed; [14]): 100
Ryegrass, Italian plant response rating (ryegrass, Italian; [15]): 5
Ryegrass, Italian plant response rating (ryegrass, Italian; [9]): 40
Plant response rating, Ryegrass, Italian (ryegrass, Italian; [10]): 85
Ryegrass, Italian plant response rating (ryegrass, Italian; [11]): 90
Crabgrass, Large plant response rating (crabgrass, large [3]; [15]): 100
Crabgrass, Large plant response rating (crabgrass, large [3]; [9]): 100
Plant response rating, Crabgrass, Large (crabgrass, large [3]; [10]): 100
Crabgrass, Large plant response rating (crabgrass, large [3]; [11]): 100
Foxtail, Giant plant response rating (foxtail, giant; [15]): 85
Foxtail, Giant plant response rating (foxtail, giant; [9]): 98
Plant response rating, Foxtail, Giant (foxtail, giant; [10]): 100
Foxtail, Giant plant response rating (foxtail, giant; [11]): 100
Johnsongrass plant response rating (johnsongrass; [15]): 10
Johnsongrass plant response rating (johnsongrass; [9]): 70
Plant response rating, Johnsongrass (johnsongrass; [10]): 100
Johnsongrass plant response rating (johnsongrass; [11]): 98
Waterhemp plant response rating (waterhemp; [15]): 98
Waterhemp plant response rating (waterhemp; [9]): 98
Plant response rating, Waterhemp (waterhemp; [10]): 98
Waterhemp plant response rating (waterhemp; [11]): 100
Velvetleaf plant response rating (velvetleaf; [15]): 0
Velvetleaf plant response rating (velvetleaf; [9]): 35
Plant response rating, Velvetleaf (velvetleaf; [10]): 50
Velvetleaf plant response rating (velvetleaf; [11]): 100
Plant response rating (scale of 0 to 100 where 0 is no effect and 100 is complete control), Crabgrass, Large (crabgrass, large [4]): 5
Crabgrass, Large plant response rating (crabgrass, large [4]): 5
Plant response rating, Crabgrass, Large (crabgrass, large [4]; [12]): 10
Plant response rating, Crabgrass, Large (crabgrass, large [4]; [13]): 5
Plant response rating (scale of 0 to 100 where 0 is no effect and 100 is complete control), Barnyardgrass (barnyardgrass [5]): 5
Barnyardgrass plant response rating (barnyardgrass [5]): 5
Plant response rating, Barnyardgrass (barnyardgrass [5]; [12]): 20
Plant response rating, Barnyardgrass (barnyardgrass [5]; [13]): 10
Plant response rating (scale of 0 to 100 where 0 is no effect and 100 is complete control), Kochia (kochia): 60
Kochia plant response rating (kochia): 85
Plant response rating, Kochia (kochia; [12]): 90
Plant response rating, Kochia (kochia; [13]): 90
Plant response rating (scale of 0 to 100 where 0 is no effect and 100 is complete control), Chickweed (chickweed): 60
Chickweed plant response rating (chickweed): 75
Plant response rating, Chickweed (chickweed; [12]): 90
Plant response rating, Chickweed (chickweed; [13]): 70
